Results on 1 molecule are retold here after US6207393A, “Inhibition of intracellular signal transduction by 14-3-3-binding peptides” (Washington University, priority 1999, dated 2001).

One assay has as its target T1, 14-3-3 eta (Homo sapiens, UniProt Q04917).
T1 construct: made in house; host or cells: E. coli DH5α (vector pGEX-KT)
T1 sequence (Q04917 1-246): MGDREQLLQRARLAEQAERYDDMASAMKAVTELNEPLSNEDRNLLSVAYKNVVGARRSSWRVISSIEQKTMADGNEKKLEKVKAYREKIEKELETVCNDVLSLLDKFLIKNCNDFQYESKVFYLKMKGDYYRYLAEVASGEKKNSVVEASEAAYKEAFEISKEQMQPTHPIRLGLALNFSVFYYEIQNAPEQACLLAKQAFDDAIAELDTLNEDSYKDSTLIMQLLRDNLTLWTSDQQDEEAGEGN
The assay is described as follows: Surface plasmon resonance kinetics, 14-3-3 eta binding to phosphorylated Raf-259 peptide. Conditions: isoform eta. The protocol: (§1) Because the surface plasmon resonance detects binding in real time, this method can be used to directly determine the rates of association (kon) and dissociation (koff). For these kinetic measurements, GST/14-3-3 fusion proteins were injected over a range of concentrations between 200 nM and 5 μM. The "on" rate, kon, was determined by calculating dR/dt for the initial linear portion of association using the Biaevaluation software (Pharmacia). Because ligand rebinding to the sensor chip can affect the "off" rate (koff, Panayotou et al. Mol Cell Biol 13:3567-76, 1993 which is incorporated by reference), we measured the "off" rate in the presence of 50 μM free ligand by using the coinject function of the Biacore. The "off" rate measured in the absence of 50 μM free ligand was approximately 10-fold lower.
(§2) There are seven known isoforms of 14-3-3 which form homo- and heterodimers in vivo. If different isoforms of 14-3-3 could bind to proteins with distinct specificities, heterodimeric forms of 14-3-3 might function as modular linker proteins, bringing together different proteins into a single complex. We were, therefore, interested in determining whether different 14-3-3 isoforms recognize phosphoserine in a sequence specific fashion. This hypothesis was tested by expressing and purifying three other 14-3-3 isoforms, eta, beta and tau, and measuring their affinity towards the panel of phosphorylated peptides generated above. Using the Surface Plasmon Resonance method, the "on" and "off" rates for 14-3-3 binding to the phosphorylated Raf-259 peptide were calculated (Table 6).

Another assay concerns the target T2, 14-3-3 tau (Homo sapiens, UniProt P27348).
T2 construct: made in house; host or cells: E. coli DH5α (vector pGEX-KT)
T2 sequence (P27348 1-245): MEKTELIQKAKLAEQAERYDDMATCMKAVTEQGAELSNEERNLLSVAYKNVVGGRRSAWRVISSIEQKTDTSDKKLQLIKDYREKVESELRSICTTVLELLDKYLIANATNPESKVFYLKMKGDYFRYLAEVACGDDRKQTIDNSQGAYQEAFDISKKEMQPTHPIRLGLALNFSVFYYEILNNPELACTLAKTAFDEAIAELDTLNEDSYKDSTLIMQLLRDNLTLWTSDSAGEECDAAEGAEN
The experiment in a line: Surface plasmon resonance kinetics, 14-3-3 tau binding to phosphorylated Raf-259 peptide. Conditions: isoform tau. The protocol:
as §1, §2

In a further assay the target is T3, 14-3-3 zeta (Homo sapiens, UniProt P63104).
T3 construct: made in house; host or cells: E. coli DH5α (vector pGEX-KT)
T3 sequence (P63104 1-245): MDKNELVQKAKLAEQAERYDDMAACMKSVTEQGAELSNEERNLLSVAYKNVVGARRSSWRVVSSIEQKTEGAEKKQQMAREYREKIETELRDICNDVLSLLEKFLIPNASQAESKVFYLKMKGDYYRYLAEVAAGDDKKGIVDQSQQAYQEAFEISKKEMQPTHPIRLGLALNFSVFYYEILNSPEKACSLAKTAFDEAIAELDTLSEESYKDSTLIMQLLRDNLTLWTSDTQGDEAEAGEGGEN
The experiment in a line: SPR competitive inhibition of 14-3-3 zeta binding to chip-coupled phosphorylated Raf-259 peptide. The note with it: 14-3-3 zeta 0.5-1.0 μM; competitor 1-50 μM; relative affinity only. On the procedure:
(§3) The ability of each peptide to inhibit binding of 14-3-3 zeta to the phosphorylated peptide was then tested in a range of concentrations between 1 and 50 μM. 14-3-3 zeta was prepared according to the methods in Example 1 and binding affinities and specificities were determined using the peptides in Table 2. The 14-3-3 zeta fusion proteins (0.5-1.0 μM) were pre-incubated with a given peptide at concentrations between 1 μM and 50 μM. 14-3-3 zeta was then infused across a sensor chip surface which had been previously coupled with the phosphorylated Raf-259 peptide (SEQ ID NO: 4). IC50 values were determined by plotting the concentration of competitor peptide required to achieve a 50% reduction in equilibrium binding.

The target of the next assay is T4, 14-3-3 beta (Homo sapiens, UniProt P31946).
T4 construct: made in house; host or cells: E. coli DH5α (vector pGEX-KT)
T4 sequence (P31946 1-246): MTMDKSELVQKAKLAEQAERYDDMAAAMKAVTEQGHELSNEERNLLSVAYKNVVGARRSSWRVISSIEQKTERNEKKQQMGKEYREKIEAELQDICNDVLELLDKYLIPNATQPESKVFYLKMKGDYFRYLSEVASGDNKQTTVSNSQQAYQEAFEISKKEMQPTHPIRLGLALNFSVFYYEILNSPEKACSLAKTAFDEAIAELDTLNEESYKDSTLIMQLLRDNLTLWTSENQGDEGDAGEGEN
The assay is described as follows: SPR competitive inhibition of 14-3-3 beta binding to phosphorylated Raf-259 peptide. The note with it: isoform beta. On the procedure: as §3, §2
Competitive inhibition with the mutated phosphorylated Raf-1 peptides was used to determine whether their specificities were similar (Table 7). In each case, the calculated IC50 s were very similar to those calculated for 14-3-3 zeta.

Molecules are shown by their SMILES. Several values for one entry are separate records, joined by “and”; a condition that tells them apart may be missing. Equal entries are not always repeated. Where a SMILES comes first, the peptide text is derived from it. [ ]: non-standard residue; d: D form. pS = N[C@@H](COP(=O)(O)O)C(=O)O

`CC(C)C[C@H](N)C(=O)N[C@@H](CO)C(=O)N[C@@H](CCC(N)=O)C(=O)N[C@@H](CCCNC(=N)N)C(=O)N[C@@H](CCC(N)=O)C(=O)N[C@@H](CCCNC(=N)N)C(=O)N[C@@H](CO)C(=O)N[C@H](C(=O)N[C@@H](COP(=O)(O)O)C(=O)N[C@H](C(=O)N1CCC[C@H]1C(=O)N[C@@H](CC(N)=O)C(=O)N[C@H](C(=O)N[C@@H](Cc1c[nH]cn1)C(=O)N[C@@H](C)C(=O)O)C(C)C)[C@@H](C)O)[C@@H](C)O` [pS-Raf-259] (H-LSQRQRST[pS]TPNVHA-OH): the Kd (commonly a measure of binding affinity in units of concentration) on 14-3-3 eta was 0.128 µM; at 14-3-3 tau, 0.144 µM. Further, the koff (usually the first-order rate constant of dissociation) on 14-3-3 eta was 0.0029 s⁻¹; on 14-3-3 tau it was 0.0036 s⁻¹. Besides, the kon (usually a measure of how fast the partners come together) came out at 22600 M⁻¹ s⁻¹ at 14-3-3 eta and 25000 M⁻¹ s⁻¹ at 14-3-3 tau. Also, the IC50 (as a rule, the midpoint of a concentration-inhibition curve) at 14-3-3 zeta is 6 µM and ~6 µM; on 14-3-3 beta it was 6 µM.
